Laboratory results published in paper PMC8840081, “Phenylalanine-Based AMPA Receptor Antagonist as the Anticonvulsant Agent with Neuroprotective Activity—In Vitro and In Vivo Studies” (Molecules, 2022).
Where “and” joins values, the source holds several entries; their conditions need not be identical. Identical values can stand only once.

Legend:
[1] = test system: tactile allodynia in oxaliplatin-treated mice; assay: oxaliplatin-induced neuropathic pain model, von Frey test; assay type: in vivo; settings: 10 and 30 mg/kg i.p., early and late phase
Method: (§1) Behavioral experiments were carried out in male Albino Swiss (CD-1) mice weighing 18–22 g. The mice were kept in cages, in groups of 10 animals. They had free access to food and water before experiments, and were maintained at room temperature 22–24 °C, under 12:12 (light/dark) cycle. For the assays the animals were selected randomly. After the experiments the animals were euthanized by cervical dislocation. Experimental procedures for in vivo tests were approved by the Local Ethics Committee of the Jagiellonian University in Krakow (Approval No. 33/2018; release date: 1.02.2018) and the treatment of animals was performed in full accordance with ethical standards laid down in respective Polish and EU regulations (Directive 2010/63/EU).
Oxaliplatin was purchased from Activate Scientific GmbH (Prien, Germany). PTZ and STZ were provided by Merck KGaA (Darmstadt, Germany). For the in vivo tests, the compound 1 was suspended in 1% Tween 80 solution (Polskie Odczynniki Chemiczne, Gliwice, Poland), then being administered intraperitoneally 1 h before tests. For the evaluation of anticonvulsant properties of the test compound, a fixed dose of 100 mg/kg, was used. Since many AEDs at lower doses are used as analgesic drugs, for pain tests the doses 10 and 30 mg/kg were selected. […]

[2] = test system: heat hyperalgesia in diabetic mice; assay: diabetic (STZ) neuropathic pain model, hot plate test; assay type: in vivo; settings: 30 mg/kg i.p.
Method: as §1
Oxaliplatin was purchased from Activate Scientific GmbH (Prien, Germany). PTZ and STZ were provided by Merck KGaA (Darmstadt, Germany). […]
To induce type I diabetes and diabetic neuropathic pain, mice were administered STZ, an alkylating antitumor drug that destroys insulin-secreting islet cells. […] Blood glucose levels were measured 1 day before (referred to as ‘day 0′) and repeatedly 1, 2 and 3 weeks after STZ injection using a blood glucose monitoring system (AccuChek Active, Roche, France). […]
The effect of 1 on heat hyperalgesia was assessed using the hot plate test. […]

[3] = test system: 6-Hz psychomotor seizures in mice; assay: 6-Hz test; assay type: in vivo; settings: 100 mg/kg i.p.
Method: as §1
(§2) Oxaliplatin was purchased from Activate Scientific GmbH (Prien, Germany). PTZ and STZ were provided by Merck KGaA (Darmstadt, Germany). For the in vivo tests, the compound 1 was suspended in 1% Tween 80 solution (Polskie Odczynniki Chemiczne, Gliwice, Poland), then being administered intraperitoneally 1 h before tests. For the evaluation of anticonvulsant properties of the test compound, a fixed dose of 100 mg/kg, was used. Since many AEDs at lower doses are used as analgesic drugs, for pain tests the doses 10 and 30 mg/kg were selected.
This test was performed according to Barton et al.. […]

[4] = test system: electrically induced seizures in mice; assay: maximal electroshock (MES) test; assay type: in vivo; settings: 100 mg/kg i.p.
Method: as §1, §2
MES test was performed as described previously. […]

[5] = ferric reducing antioxidant power (FRAP) assay; settings: % of ascorbic acid activity; compounds and AA at 1 mM
Method: The total antioxidant potential of aryl-substituted phenylalanine derivatives was determined using FRAP assay. The FRAP reagent was prepared first by mixing acetate buffer (300 mM, pH 3.6), a solution of 10 mM TPTZ (2,4,6-tripyridyl-s-triazine, Sigma-Aldrich, Inc., St. Louis, MO, USA) in 40 mM HCl and 20 mM of iron (III) chloride hexahydrate (FeCl3 × 6H2O, Chempur, Piekary Śląskie, Poland) at 10:1:1 (v/v/v). The FRAP reagent (190 μL) and 1 mM of tested compound (10 μL) was added next to each well, mixed and incubated for 30 min. The absorbance was measured using a microplate reader EnSpire (PerkinElmer, Waltham, MA USA) at 593 nm. AA (1 mM, AMARA, Kraków, Poland) was used as the reference antioxidant. The results were expressed as % of ascorbic acid activity (%AAA). Analyses were performed in triplicate. • ORAC-FL

## NC(Cc1cc(-c2cc(O)ccc2O)c(Cl)c([N+](=O)[O-])c1)C(=O)O (stereo not shown) [Compound 1]
[1]
  effect on tactile allodynia, von Frey test: not effective
[2]
  antihyperalgesic activity, hot plate test (latency to pain reaction): antihyperalgesic activity was not observed
[3]
  Mortality rate (%): 0%
[3]; 1 h before test
  X/Y, number of mice protected (X) per number of mice tested (Y): 3/4
[4]
  Mortality rate (%): 25%
[4]; 1 h before test
  X/Y, number of mice protected (X) per number of mice tested (Y): 0/4
[5]
  FRAP (%AAA): 748.5 %AAA and 748.49 %AAA
